Source: patent US8153791B2, “Substituted pyrimidinyl oxime kinase inhibitors” (Janssen Pharmaceutica N.V., priority 2005, dated 2012)
pIC50: −log10 of the molar value. Read-outs that look alike come from different tables or passages of the source.

Legend:
[1] = system: SK-OV-3 ovarian carcinoma; experiment: In vitro cell proliferation inhibition, SK-OV-3; format: cell-based; conditions: Homo sapiens; SK-OV-3 cells, 14C-thymidine incorporation
Description: (§1) The ability of a test compound to inhibit unregulated in vitro cell proliferation may be determined by measuring incorporation of ^14C-labelled thymidine into newly synthesized DNA within cell lines derived from carcinomas originating from several tissues. Accordingly, the effect of a test compound on proliferation of cells with a variety of phenotypes may be determined.
(§2) Carcinoma cell lines used include the HeLa cervical adenocarcinoma from the American Type Culture Collection (ATCC Cat. #CCL2), SK-OV-3 ovarian carcinoma (ATCC Cat. #HTB-77), MCF-7 breast carcinoma (ATCC Cat. #HTB-22), BT474 breast carcinoma (ATCC Cat. #HTB-20), SKBR3 breast carcinoma (ATCC Cat. #HTB-30), A431 epidermoid carcinoma (ATCC Cat. #CRL-1555) and NCI-N87 gastric carcinoma (ATCC Cat. #CRL-5822).
(§3) The carcinoma cells are trypsinized and counted. The cells (3000-8000 count) are added to each well of a 96-well CytoStar tissue culture treated scintillating microplate (Amersham #RPNQ0160) in complete medium (100 μL) and the plate is then incubated in complete medium for 24 hrs at 37° C. in an inert atmosphere containing 5% CO2.
(§4) Test compound (1 μL) in 100% DMSO is added to the plate test-wells with DMSO only added to control-wells. The plate is incubated in complete medium for a second 24 hr period at 37° C. in an atmosphere containing 5% CO2.
(§5) An aliquot of a solution of Methyl ^14C-thymidine (56 mC/mmol) (NEN #NEC568 or Amersham #CFA532) and complete medium (20 μL to provide 0.2 μCi/well) is then added to each well and the plate is incubated for a third 24 hr period at 37° C. in an atmosphere containing 5% CO2.
(§6) The plate contents are then discarded, the plate is washed twice with PBS (200 μL) and then PBS (200 μL) is added to each well. The plate is sealed and the degree of methyl ^14C-thymidine incorporation is quantified on a Packard Top Count.
(§7) Cell proliferation of the Hela cell line was measured using the ATP-Lite method as described in the ATP Lite Kit (Perkin-Elmer Kit Number 6106941) or the C^14 method as described above. Cell proliferation of the other cell lines was measured using the C^14 method.
(§8) The term “NT” means that the compound indicated was not tested in a particular cell line. The lack of such testing is not intended to imply a belief that the compound is not otherwise active in a particular cell line or any other cell line not tested.

[2] = system: HeLa cervical adenocarcinoma; experiment: In vitro cell proliferation inhibition, HeLa; format: cell-based; conditions: Homo sapiens, read-out: HeLa IC50
Description: as §1, §2, §3, §4, §5, §6, §7, §8

MCF-7 breast carcinoma = experiment: In vitro cell proliferation inhibition, MCF-7; format: cell-based; conditions: Homo sapiens, MCF7; MCF-7 cells, 14C-thymidine incorporation
Description: as §1, §2, §3, §4, §5, §6, §7, §8

[3] = system: NCI-N87 gastric carcinoma; experiment: In vitro cell proliferation inhibition, NCI-N87; format: cell-based; conditions: Homo sapiens
Description: as §1, §2, §3, §4, §5, §6, §7, §8

HER-2 = biological target: T1, HER-2 (Homo sapiens, UniProt P04626); experiment: HER-2 Kinase Assay; format: biochemical; conditions: read-out: HER2 IC50;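 note: HER2 kinase reaction read by scintillation counting, inhibition scaled between maximum and minimum signals set on each plate, IC50 from inhibition against log concentration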
T1 construct: purchased Proqinase (Freiburg, Germany)

SKBR3 breast carcinoma = experiment: In vitro cell proliferation inhibition, SKBR3; format: cell-based; conditions: Homo sapiens
Description: as §1, §2, §3, §4, §5, §6, §7, §8

[4] = system: A431 epidermoid carcinoma; experiment: In vitro cell proliferation inhibition, A431; format: cell-based; conditions: Homo sapiens
Description: as §1, §2, §3, §4, §5, §6, §7, §8

BT474 breast carcinoma = experiment: In vitro cell proliferation inhibition, BT474; format: cell-based; conditions: Homo sapiens
Description: as §1, §2, §3, §4, §5, §6, §7, §8

EGFR = biological target: T2, EGFR (Homo sapiens, UniProt P00533); experiment: EGFR Kinase Assay; format: biochemical;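 note: recombinant GST-tagged EGFR expressed in Sf9 cells, phosphorylating biotinylated polyGluTyr with γ-33P ATP on Streptavidin Flashplates, 1 h at 30 °C, scintillation counting, inhibition relative to plate maximum and minimum signals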
T2 construct: The intracellular portion of EGFR started at nucleotide 2189 (corresponding to amino acid 667) and ended at the termination codon; made in house; host or cells: Sf9 insect cells (baculovirus)

[5] = HeLa cell line, ATP-Lite method or C14 thymidine method
[6] = NCI-N87, N87 cells, 14C-thymidine incorporation, read-out: IC50 N87
[7] = SK-BR-3, SKBR3 cells, 14C-thymidine incorporation, read-out: IC50 SKBR3
[8] = A-431, A431 cells, 14C-thymidine incorporation, read-out: IC50 A431
[9] = BT-474, BT474 cells, 14C-thymidine incorporation, read-out: IC50 BT474

T1 sequence (P04626 679-1255): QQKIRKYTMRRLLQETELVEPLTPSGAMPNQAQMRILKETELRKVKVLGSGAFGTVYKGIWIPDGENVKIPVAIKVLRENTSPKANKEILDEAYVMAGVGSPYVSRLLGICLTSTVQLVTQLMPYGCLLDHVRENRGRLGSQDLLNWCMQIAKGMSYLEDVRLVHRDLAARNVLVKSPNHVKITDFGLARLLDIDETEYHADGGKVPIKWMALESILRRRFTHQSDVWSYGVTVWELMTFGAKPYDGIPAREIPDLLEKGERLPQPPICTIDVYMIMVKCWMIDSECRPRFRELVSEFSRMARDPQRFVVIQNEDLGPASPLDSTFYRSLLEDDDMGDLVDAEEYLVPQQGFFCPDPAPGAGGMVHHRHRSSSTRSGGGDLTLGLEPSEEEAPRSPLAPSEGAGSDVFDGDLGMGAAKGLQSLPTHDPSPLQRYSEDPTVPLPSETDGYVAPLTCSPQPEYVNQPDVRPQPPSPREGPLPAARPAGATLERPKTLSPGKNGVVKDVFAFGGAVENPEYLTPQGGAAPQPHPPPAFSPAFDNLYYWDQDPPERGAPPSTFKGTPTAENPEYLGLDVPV
T2 sequence (P00533 669-1210 limits assumed): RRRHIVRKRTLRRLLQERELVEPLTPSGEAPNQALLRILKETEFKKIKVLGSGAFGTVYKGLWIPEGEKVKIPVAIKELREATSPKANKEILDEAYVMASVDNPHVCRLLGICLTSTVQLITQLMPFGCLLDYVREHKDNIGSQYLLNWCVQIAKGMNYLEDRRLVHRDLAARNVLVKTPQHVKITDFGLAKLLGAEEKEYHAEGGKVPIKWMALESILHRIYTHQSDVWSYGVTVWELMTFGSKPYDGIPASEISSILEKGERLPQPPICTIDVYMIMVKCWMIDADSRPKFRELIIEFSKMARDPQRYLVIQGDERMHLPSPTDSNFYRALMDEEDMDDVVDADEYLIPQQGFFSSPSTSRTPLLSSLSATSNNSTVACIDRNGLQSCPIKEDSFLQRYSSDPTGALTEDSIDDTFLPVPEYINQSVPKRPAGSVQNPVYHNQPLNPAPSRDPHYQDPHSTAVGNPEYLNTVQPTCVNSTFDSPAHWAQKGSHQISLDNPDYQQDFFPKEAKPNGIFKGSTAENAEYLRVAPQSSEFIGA

Compound | pIC50 [1] | pIC50 [2, 5] | pIC50 (MCF-7 breast carcinoma) | pIC50 [3, 6] | pIC50 (HER-2) | pIC50 (SKBR3 breast carcinoma; [7]) | pIC50 [4, 8] | pIC50 (BT474 breast carcinoma; [9]) | pIC50 (EGFR) | pIC50 (SKBR3 breast carcinoma; SK-BR-3, read-out: IC50 SKBR3) | pIC50 ([4]; A-431, read-out: IC50 A431) | pIC50 (BT474 breast carcinoma; BT-474, read-out: IC50 BT474) | pIC50 ([2]; HeLa) | pIC50 ([3]; NCI-N87, read-out: IC50 N87)
CO/N=C/c1c(N)ncnc1Nc1ccc(OCc2ccccc2)c(Cl)c1 [Cpd 9, (5E)-4-amino-6-(4-benzyloxy-3-chloro-phenylamino)-pyrimidine-5-carbaldehyde O-methyl-oxime] | 4.00 | 4.46 | 4.06 | 6.15 |  |  |  |  |  |  |  |  |  | 
Nc1ncnc(Nc2ccc3c(cnn3Cc3cccc(F)c3)c2)c1/C=N/OCCN1CCOCC1 [Cpd 19, (5E)-4-amino-6-[1-(3-fluoro-benzyl)-1H-indazol-5-ylamino]-pyrimidine-5-carbaldehyde O-(2-morpholin-4-yl-ethyl)-oxime] | 4.72 | 5.00 | 5.60 | 7.40 | 7.30 | 7.00 | 5.96 | 7.52 | 7.70 |  |  |  |  | 
CO/N=C/c1c(N)ncnc1Nc1ccc2c(ccn2Cc2cccc(F)c2)c1 [Cpd 34, (5E)-4-amino-6-[1-(3-fluoro-benzyl)-1H-indol-5-ylamino]-pyrimidine-5-carbaldehyde O-methyl-oxime] | 5.49 | 5.46 | 5.42 | 6.70 |  |  |  |  |  |  |  |  |  | 
CO/N=C/c1c(N)ncnc1Nc1ccc2[nH]c(Cc3cccc(F)c3)nc2c1 [Cpd 60, (5E)-4-amino-6-[2-(3-fluoro-benzyl)-1H-benzoimidazol-5-ylamino]-pyrimidine-5-carbaldehyde O-methyl-oxime] | 5.00 | 5.00 | 5.00 | 6.22 |  |  |  |  |  |  |  |  |  | 
CN(C)CCCO/N=C/c1c(N)ncnc1Nc1ccc2c(cnn2Cc2cccc(F)c2)c1 [Cpd 70, (5E)-4-amino-6-[1-(3-fluoro-benzyl)-1H-indazol-5-ylamino]-pyrimidine-5-carbaldehyde O-(3-dimethylamino-propyl)-oxime] |  |  |  |  | 7.70 |  |  |  | 7.70 | 6.40 | 4.85 | 7.00 | 5.00 | 6.52
Nc1ncnc(Nc2ccc(OCc3cccc(F)c3)c(Cl)c2)c1/C=N/OCCCO [Cpd 75, (5E)-4-amino-6-[3-chloro-4-(3-fluoro-benzyloxy)-phenylamino]-pyrimidine-5-carbaldehyde O-(3-hydroxy-propyl)-oxime] | 5.00 | 4.40 | 4.51 | 9.00 | 8.05 |  |  |  | 8.10 |  |  |  |  | 
Nc1ncnc(Nc2ccc(OCc3ccccc3)c(Cl)c2)c1/C=N/OCCCO [Cpd 76, (5E)-4-amino-6-(4-benzyloxy-3-chloro-phenylamino)-pyrimidine-5-carbaldehyde O-(3-hydroxy-propyl)-oxime] | 4.62 | 4.23 | 5.00 | 6.52 | 7.52 | 6.52 | 5.74 | 6.70 | 8.00 |  |  |  |  | 
Nc1ncnc(Nc2ccc3c(cnn3Cc3cccc(F)c3)c2)c1/C=N/OCCCN1CCOCC1 [Cpd 87, (5E)-4-amino-6-[1-(3-fluoro-benzyl)-1H-indazol-5-ylamino]-pyrimidine-5-carbaldehyde O-(3-morpholin-4-yl-propyl)-oxime] |  | 5.31 |  | 6.52 | 7.15 | 6.30 | 5.44 | 6.52 | 7.52 |  |  |  |  | 
Nc1ncnc(Nc2ccc3c(ccn3Cc3cccc(F)c3)c2)c1/C=N/OCCCO [Cpd 91, (5E)-4-amino-6-[1-(3-fluoro-benzyl)-1H-indol-5-ylamino]-pyrimidine-5-carbaldehyde O-(3-hydroxy-propyl)-oxime] | 5.27 | 5.03 | 5.00 | 6.70 | 7.52 | 6.52 | 5.89 | 6.70 | 8.15 |  |  |  |  | 
Nc1ncnc(Nc2ccc3c(cnn3Cc3cccc(F)c3)c2)c1/C=N/OCCCN1CCCCC1 [Cpd 92, (5E)-4-amino-6-[1-(3-fluoro-benzyl)-1H-indazol-5-ylamino]-pyrimidine-5-carbaldehyde O-(3-piperidin-1-yl-propyl)-oxime] |  | 5.33 |  | 6.70 | 7.52 | 6.40 | 5.51 | 6.70 | 7.30 |  |  |  |  | 
Nc1ncnc(Nc2ccc(OCc3ccccc3)c(Cl)c2)c1/C=N/OCCN1CCCCC1 [Cpd 95, (5E)-4-amino-6-(4-benzyloxy-3-chloro-phenylamino)-pyrimidine-5-carbaldehyde O-(2-piperidin-1-yl-ethyl)-oxime] | 5.62 | 4.92 | 6.00 | 5.96 | 6.70 | 5.00 | 4.00 | 5.00 | 7.30 |  |  |  |  | 
Nc1ncnc(Nc2ccc3c(cnn3Cc3cccc(F)c3)c2)c1/C=N/OCCN1CCCCC1 [Cpd 96, (5E)-4-amino-6-[1-(3-fluoro-benzyl)-1H-indazol-5-ylamino]-pyrimidine-5-carbaldehyde O-(2-piperidin-1-yl-ethyl)-oxime] | 4.82 | 4.83 | 5.68 | 6.70 | 7.00 | 6.40 | 6.10 | 6.70 | 7.22 |  |  |  |  | 
Nc1ncnc(Nc2ccc(OCc3cc(F)cc(F)c3)c(Cl)c2)c1/C=N/OCCN1CCOCC1 [Cpd 99, (5E)-4-amino-6-[3-chloro-4-(3,5-difluoro-benzyloxy)-phenylamino]-pyrimidine-5-carbaldehyde O-(2-morpholin-4-yl-ethyl)-oxime] |  | 4.00 |  | 4.00 | 6.70 | 4.00 | 4.00 | 5.00 | 7.15 |  |  |  |  | 
Nc1ncnc(Nc2ccc3c(ccn3Cc3cccc(F)c3)c2)c1/C=N/OCCN1CCCCC1 [Cpd 102, (5E)-4-amino-6-[1-(3-fluoro-benzyl)-1H-indol-5-ylamino]-pyrimidine-5-carbaldehyde O-(2-piperidin-1-yl-ethyl)-oxime] |  | 5.85 |  | 6.70 | 6.85 | 6.15 | 9.00 | 6.05 | 7.40 |  |  |  |  | 
N#Cc1c(N)ncnc1Nc1ccc(OCc2ccccc2)c(Cl)c1 [Cpd 118, 4-amino-6-(4-benzyloxy-3-chloro-phenylamino)-pyrimidine-5-carbonitrile] |  | 4.00 |  | 4.00 | 7.00 | 4.00 | 4.00 | 4.00 | 7.52 |  |  |  |  | 
